Common to all, as to assay: NCI-60 cell line screen, 48 h
In test [1] the test system is NCI/ADR-RES ovarian.
The test system of test [2] is COLO 205 colon.
Test [3] has as its system K-562 leukemia.
Test [4] relates to OVCAR-8 ovarian.
The subject of test [5] is MDA-MB-231 breast.
Test [6] has as its system HT29 colon.
The subject of test [7] is M14 melanoma.
The subject of test [8] is SK-MEL-28 melanoma.
Test [9] relates to MALME-3M melanoma.
Test [10] relates to EKVX NSCLC.
For test [11], the system named is SW-620 colon.
Test [12] deals with NCI-H460 lung.

The source of these data is PubChem BioAssay (NCI).

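Briefly, cells in 96-well plates were exposed to five compound concentrations for 48 h, and endpoints were estimated by linear interpolation. The concentration for full growth arrest is given as TGI.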

With `O=C(c1ccc(Cl)cc1)N(C(=S)OCCOc1ccccc1)c1ccccc1`, the TGI in test [1] was 76.3 µM; in test [2] it was 37.1 µM; in test [3], more than 100 µM; in test [4], 48.3 µM; in test [5] it was 75.6 µM; in test [6] it was 35.6 µM. For the same compound, the TGI was 32.4 µM in test [7]; 34.9 µM in test [8]; 70.7 µM in [9]; 48.6 µM in [10]; 41.2 µM in test [11]; 62.7 µM in test [12].

In the case of `CCOP(=O)(OCC)OC1c2[nH]cc(C(=O)OCc3ccccc3)c2-c2cc(C(=O)OC)[nH]c2C1OC` (stereo not given), the TGI in test [1] is 59.5 µM; in test [2], more than 100 µM; in test [3], more than 100 µM; in test [4], more than 62.8 µM; in test [5], 37 µM; in test [6], more than 48.4 µM. For the same compound, the TGI is more than 100 µM in test [7]; more than 100 µM in test [8]; 60 µM in [9]; 70.7 µM in test [10]; more than 100 µM in test [11]; more than 100 µM in test [12].

`CC(C)Oc1c(-c2ccc(F)cc2)c(O)c2c3c1oc(=O)n3C=CC2C` (stereo not given): the TGI in test [1] amounted to 29.3 µM; in [2] it was 32.2 µM; in test [3], 39.6 µM; in [4] it was 30.6 µM; in test [5] it was 28.7 µM; in test [6] it was 30.2 µM. Moreover, the TGI in [7] amounted to 28.5 µM; in test [8], 30.9 µM; in [9] it was 91.1 µM; in test [10], 30.6 µM; in test [11] it was 28.5 µM; in test [12] it was 29.1 µM.

Consider `O=C(OCCNC(=O)N1CC1)OCCNC(=O)N1CC1`, for which the TGI in test [1], in [2], in [3], in [4], in [5] and in test [6] was more than 10 µM in each case. In addition, the TGI in test [7], in test [8], in [9], in test [10], in [11] and in test [12] was more than 10 µM each time.

Regarding `CC1=C(C(=O)N[C@@H](CC(C)C)C(=O)O)N2C(=O)[C@@H](NC(=O)C(N)c3ccccc3)[C@H]2SC1` (stereo not given in full), the TGI in test [1], in [2], in [3], in test [4], in test [5] and in [7] was more than 100 µM throughout. Also, the TGI in [8], in test [9], in test [10], in test [11] and in test [12] was more than 100 µM throughout.

On to `CNC1(C(=O)O)CC1`, for which the TGI in test [1], in test [3], in [4], in test [5], in test [6] and in test [7] was more than 100 µM in each case. Moreover, the TGI in test [8], in test [9], in test [10], in test [11] and in test [12] was more than 100 µM throughout.

As to `COc1ccc(-c2oc3c(OC)c(OC)cc(O)c3c(=O)c2OC)cc1`, the TGI in test [1], in test [2], in test [3], in test [4], in test [5] and in [6] was more than 100 µM in each case. The TGI in [7], in test [8], in test [9], in [10], in test [11] and in test [12] was more than 100 µM each time.

In the case of `COC(=O)CC1c2ccccc2N2C(=O)Cc3c([nH]c4ccccc34)C12` (stereo not given), the TGI in test [1], in test [2], in test [3], in test [4], in test [5] and in test [6] was more than 100 µM each time. For the same compound, the TGI in [7], in [8], in [9], in test [10], in test [11] and in test [12] was more than 100 µM each time.

For the compound `CCO/C=N/C1=C(C#N)SC2=N/C(=C\c3ccccc3)C(=O)N21`, the TGI is more than 100 µM in [1]; more than 100 µM in test [2]; more than 80.4 µM in [3]; more than 100 µM in test [4]; more than 100 µM in test [5]; more than 100 µM in test [6]. Moreover, the TGI in test [7], in test [8], in test [9], in test [10], in test [11] and in test [12] was more than 100 µM throughout.

On to `BrCC[N+]12CC[N+](CCBr)(CC1)C2`, for which the TGI in test [1], in test [2], in test [3], in test [4], in [5] and in test [6] was more than 100 µM in each case. Besides, the TGI in [7], in test [8], in test [9], in test [10], in test [11] and in [12] was more than 100 µM throughout.

Take `ClCCCCCc1c2nc(c(CCCCCCl)c3ccc([nH]3)c(CCCCCCl)c3ccc([nH]3)c(CCCCCCl)c3nc1C=C3)C=C2`: the TGI in test [1], in test [2], in [3], in test [4], in test [5] and in test [6] was more than 100 µM each time. The TGI in [7], in test [8], in test [9], in test [10], in test [11] and in test [12] was more than 100 µM in each case.

For the compound `CC1C(C#N)(C#N)C(C#N)=C(N)C1(Cl)[N+](=O)[O-]` (stereo not given), the TGI in test [1] was 34.2 µM; in test [2], 18.5 µM; in test [3], more than 100 µM; in [4], 28.7 µM; in test [5], 26.9 µM; in test [6] it was 23.5 µM. Also, the TGI worked out at 22.1 µM in test [7], 18.7 µM in test [9], 41.4 µM in [10] and 4.46 µM in test [11].

Consider `CN1CC2CN(Cc3ccccc3)CCN2c2cccnc21` (stereo not given), for which the TGI is more than 100 µM in test [1]; more than 100 µM in [2]; more than 100 µM in test [3]; more than 100 µM in test [4]; more than 100 µM in test [5]; 87.9 µM in [6]. For the same compound, the TGI in test [7], in [9], in test [10], in test [11] and in test [12] was more than 100 µM each time.

As to `Cc1ccc2c(/C=C/c3ccc(N(C)C)cc3)ccc(C(C)C)cc1-2`, the TGI in [1], in test [2], in [3], in test [4], in [5] and in [6] was more than 100 µM in each case. Besides, the TGI in test [7], in test [8], in test [9], in [10] and in test [11] was more than 100 µM each time.

With `COC(=O)C12OC3CO[Si](C(C)C)(C(C)C)O[Si](C(C)C)(C(C)C)OC3C1Oc1nc(=O)ccn12` (stereo not given), the TGI in [1] amounted to 29.2 µM; in test [2] it was 32.9 µM; in [3], 30.6 µM; in [4], 29 µM; in test [5], 29.5 µM; in test [6], 29.3 µM. The TGI in test [7] was determined as 32.3 µM; in test [8] it was 30.4 µM; in test [9] it was 28.1 µM; in test [10], 30.7 µM; in test [11], 30 µM.

Take `CCOc1cc2c(c(OCC)c1O)CC[C@@H]1[C@@H]2CC[C@]2(C)[C@@H](O)CC[C@@H]12`: the TGI was 46 µM in test [1]; 55.3 µM in test [2]; 23.7 µM in [3]; more than 100 µM in test [4]; 24.3 µM in test [5]; 24.7 µM in [6]. Also, the TGI in test [7] was more than 100 µM; in test [9], 66.4 µM; in test [10] it was more than 100 µM; in test [11], 41.7 µM.

Turning to `CCOC(=O)C(Cl)(NC(=O)OCc1ccccc1)C(F)(F)F` (stereo not given), the TGI in test [1], in [2], in test [3], in test [4], in test [5] and in test [6] was more than 100 µM throughout. In addition, the TGI in test [7], in test [8], in test [9], in test [10] and in test [11] was more than 100 µM each time.

Consider `COc1ccc(NC(=S)c2ccoc2C)cc1CC(=O)OC(C)C`, for which the TGI in test [1] is 58.7 µM; in test [2], 36.7 µM; in test [3], more than 100 µM; in test [4], more than 100 µM; in test [5], more than 100 µM; in test [6], 36.3 µM. The TGI is 64.3 µM in test [7]; more than 100 µM in [8]; more than 100 µM in test [10]; more than 100 µM in test [11]; more than 100 µM in test [12].
